Measurements as given in article PMC6572176, “Functional Glyco-Nanogels for Multivalent Interaction with Lectins” (Molecules, 2019).

Key:
[1] = molecular target: T1, Ulex europaeus agglutinin I (UEA I) (Ulex europaeus, UniProt P22972); assay: ELISA-type competitive inhibition, fluorescein-labeled lectin on immobilized porcine stomach mucin; format: binding; details: 10 mM HEPES, 150 mM NaCl, 0.1 mM CaCl2, pH 7.5, 1 h
T1 construct: native plant lectin, fluorescein-labeled (Vector Laboratories)
T1 sequence (P22972 1-243): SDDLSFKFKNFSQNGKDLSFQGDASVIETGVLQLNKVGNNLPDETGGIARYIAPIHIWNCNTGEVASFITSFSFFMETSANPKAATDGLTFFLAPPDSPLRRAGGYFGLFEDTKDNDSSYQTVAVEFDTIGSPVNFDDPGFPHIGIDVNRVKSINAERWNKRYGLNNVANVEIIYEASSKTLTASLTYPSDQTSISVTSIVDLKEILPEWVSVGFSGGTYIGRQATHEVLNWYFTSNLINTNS

[2] = molecular target: T2, Erythrina cristagalli lectin (ECL) (Erythrina crista-galli, UniProt P83410); assay: ELISA-type competitive inhibition, fluorescein-labeled lectin on immobilized asialofetuin; format: binding; details: 10 mM HEPES, 150 mM NaCl, 0.1 mM CaCl2, pH 7.5, 1 h
T2 construct: native plant lectin, fluorescein-labeled (Vector Laboratories); dimeric
T2 sequence (P83410 1-239): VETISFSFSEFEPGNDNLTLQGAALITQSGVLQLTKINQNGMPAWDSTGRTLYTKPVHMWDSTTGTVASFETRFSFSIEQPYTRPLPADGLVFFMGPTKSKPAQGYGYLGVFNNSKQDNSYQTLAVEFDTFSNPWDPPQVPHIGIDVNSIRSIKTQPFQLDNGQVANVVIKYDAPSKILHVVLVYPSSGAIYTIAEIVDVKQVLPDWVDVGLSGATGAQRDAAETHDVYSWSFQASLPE

SMILES | IC50 [1] | IC50 [2]
C[C@@H]1OC(O)[C@@H](O)[C@H](O)[C@@H]1O (some centres unmarked) [fucose] | The IC50 value of fucose for UEA I binding is three-times | –
OC[C@H]1O[C@@H](O[C@H]2[C@H](O)[C@@H](O)C(O)O[C@@H]2CO)[C@H](O)[C@@H](O)[C@H]1O (some centres unmarked) [lactose] | – | free lactose is a potent inhibitor for ECL with IC50 in the same range
